Experimental data published in ChEMBL document CHEMBL1149407, “Angelmarin, a novel anti-cancer agent able to eliminate the tolerance of cancer cells to nutrient starvation” (2006).
Active and inactive are the calls of the source. The rule behind the calls is not given here.

Legend:
PANC-1 [1] = experiment: Cytotoxicity in pancreatic PANC1 cancer cells at 100 ug/ml in nutrient-rich condition; format: functional, cell-based; conditions: Homo sapiens
PANC-1 [2] = experiment: Cytotoxicity in pancreatic PANC1 cancer cells at 100 ug/ml in nutrient-deprived condition; format: functional, cell-based; conditions: Homo sapiens
PANC-1 [3] = experiment: Cytotoxicity in pancreatic PANC1 cancer cells at 0.01 ug/ml within 24 hours of nutrient deprivation; format: functional, Homo sapiens
PANC-1 [4] = experiment: Cytotoxicity in pancreatic PANC1 cancer cells at 10 ug/ml within 6 hours of nutrient deprivation; format: functional, Homo sapiens

CC(C)(O)[C@@H]1Cc2c(ccc3ccc(=O)oc23)O1
Activity (PANC-1 [1]): inactive | Activity (PANC-1 [2]): inactive

CC(C)(OC(=O)/C=C/c1ccc(O)cc1)[C@@H]1Cc2c(ccc3ccc(=O)oc23)O1 [ANGELMARIN]
Activity (PANC-1 [3]): 100% | Activity (PANC-1 [4]): 100%
